Data taken from patent US9896512B2, “Antitumor peptide derived from a complementarity determining region of a humanized monoclonal antibody to NAP12B transporter” (Recepta Biopharma S.A., priority 2010, dated 2018).
“Also recorded” adds a separate entry of the source. No end group written: not given here.

Experiments:
tumor cells = assay: Cell adherence assay (detachment with trypsin/EDTA); format: cell-based; details: for adherence at peptide concentration of 1 mM (not suspended by trypsin/EDTA): 1 mM peptide; for adherence of tumor cells to the substrate: 96-well plates, RPMI 10% FCS, seen in B16F10-Nex2.1, U87MG, A5028 melanoma, SKBR3, SiHa, HCT cells
Procedure: At a lower dose, cells would be detached with trypsin/EDTA at rates inversely proportional to the peptide concentration. Conceivably, peptides RB9 and RB10 affected the cytoskeleton dynamics of cells, thus signaling increased cell adhesion.
B16F10-Nex2.1 cells (5×10^3) and U87-MG cells (1×10^4) were cultivated in 96-well plates and incubated with different concentrations of RB9 (SEQ ID NO: 8) and RB10 (SEQ ID NO: 9) from 0.01 to 1 mM (i.e., 0.01, 0.05, 0.1, 0.25, 0.7, 0.8 and 1 mM of RB9 and RB10 for B16F10-Nex 2.1 cells; and 0.25, 0.5, 0.75 and 1 mM of RB9 and RB10 for U87-MG cells). After 18 hours incubation, viable cells detached with trypsin/EDTA were counted using Trypan blue exclusion staining. All assays were performed in triplicate in two independent experiments.
(§1) SKBR3 cells (1×10^4) were cultivated in 96-well plates and incubated with RB9 (SEQ ID NO: 8) and RB10 (SEQ ID NO: 9). After 18 hours incubation, viable cells detached with trypsin/EDTA were counted using Trypan blue exclusion staining. Assays were performed in triplicate in two independent experiments. The A2058 human melanoma cells (1×10^4) were incubated for 4 hours at 37° C. in a humidified chamber with 5% CO2. Fresh media containing different peptide concentrations of RB9 and RB10 ranging from 0 to 1 mM (i.e., 0, 0.25, 0.5 and 1 mM) was added to the wells and incubated for 24 hours. The media was then aspirated, cells were detached with 30 μl/well of trypsin-EDTA for five minutes at 37° C. and viable cells were counted in a Neubauer chamber using Trypan blue. As shown in FIGS. 2A-2D, 50% of cells were trypsin-EDTA resistant at 630 and 610 μM RB9 and RB10, respectively.

[1] = tested on: A2058 human melanoma cells; assay: Cell adherence, trypsin-EDTA detachment, Trypan blue count; format: cell-based; details: 24 hours; FIGS. 2A-2D (SKBR3 and A2058), cell line not given; read-out: peptide concentration at which 50% of cells were trypsin-EDTA resistant
Procedure: as §1

SiHa cells = assay: Detection of peptide-treated hyper adherent cells (MTT after trypsin-EDTA); format: cell-based, human; details: 500 μM peptide, 24 hours
Procedure: (§2) Viable SiHa cells (1×10^4)/well were distributed on a 96-well culture plate and incubated for 4 hours at 37° C. in a humidified chamber with 5% CO2. Fresh medium containing different peptide concentrations of RB9 (SEQ ID NO: 8) and RB10 (SEQ ID NO: 9) ranging from 0 to 1 mM (i.e., 0, 0.25, 0.5 and 1 mM) was added to the wells and incubated for 24 hours. The medium was then aspirated; cells were detached with 30 μl/well of trypsin-EDTA for five minutes at 37° C. and gently washed with PBS. Hyper-adherent cells were incubated for 4 hours with 0.5 mg/mL of MTT [3-(4,5-dimethylthiazol-2-yl)-2,5-diphenyltetrazolium bromide] in fresh medium and formazan crystals were solubilized adding 1 volume of 10% SDS solution overnight. Intensity was measured using a plate reader at 570 nm.

HCT cells = assay: as above; format: cell-based, human; details: 500 μM peptide, 24 hours
Procedure: as §2
Viable HCT cells (1×10^4)/well were distributed on a 96-well culture plate and incubated for 4 hours, following the same protocol of Example 5.

HL-60 cells = assay: Cell viability, Trypan blue count or MTT assay; format: cell-based, human; details: for cytotoxicity to HL-60 cells: cells growing in suspension, Trypan blue / MTT
Procedure: (§3) Viable HL-60 cells (1×10^4)/well were distributed on a 96-well culture plate and incubated for 4 hours with different concentrations of RB9 (SEQ ID NO: 8) ranging from 0 to 1 mM for 24 hours. Cell viability was directly measured by counting in a Neubauer chamber with Trypan blue or estimated by the colorimetric MTT assay.

OVCAR-3 cells = assay: Effect on ovarian carcinoma cells (trypsin-EDTA detachment, Trypan blue or MTT); format: cell-based, human; details: for cytotoxicity / activity against OVCAR-3 cells: 0 to 1 mM, 24 hours, Trypan blue / MTT; for hyper-adherent effect (detachment with trypsin/EDTA): up to 1 mM peptide
Procedure: as §3, with “OVCAR-3” for “HL-60”, “Cells were detached with 30 μl/well of trypsin-EDTA for five minutes at 37° C. and counted” for “Cell viability was directly measured by counting”

[2] = tested on: B16F10-Nex2 melanoma cells; assay: In vivo protection against lung colonization (metastatic melanoma model); parameters: species or system C57B1/6 mice; details: 250 μg i.p. on days 1, 3, 5, 7, 9, 11; lungs after 22 days
Procedure: Details of the in vitro tumor cell growth, cytotoxicity tests, determination of viable cells and in vivo protection experiments with B16F10 cells in a mouse metastatic model are described in Polonelli et al. (PLoS One. 3(6):e2371, 2008) and Dobroff et al. (Translat. Onc., 3: 204-217, 2010).
Peptides RB9 and RB10 along with the apoptotic peptide A4H3, a true microantibody of cytotoxic anti-melanoma mAb (A4) (Dobroff et al., Translat. Onc., 3: 204-217, 2010), were tested for their protective effects against lung colonization by B16F10-Nex2 melanoma cells (2×105) injected intravenously in C57B1/6 mice (6 animals/group). Peptides were intraperitoneally administered (250 μg i.p.) on days 1, 3, 5, 7, 9, 11 after tumor cell challenge. Lungs of peptide-treated animals are shown in FIG. 5 after 22 days of tumor challenge. As noticed, peptide treatment was interrupted 10 days before animal sacrifice.
In vivo protection by peptides RB9 and RB10 (and A4H3 control) against lung colonization by B16F10-Nex2 melanoma cells (2×105) injected intravenously in C57B1/6 mice (6 animals/group) is shown in FIG. 6. The other 5 CDRs of RebMab200 (SEQ ID NOs: 7, 10, 11, 12, 13) were unprotective in vivo. Peptides were administered in the same way as described above, and the number of lung nodules was determined.

[3] = tested on: human cervix cancer SiHa cells; assay: Cell migration, wound healing assay; format: cell-based; details: peptide 500 μM, 24 hours
Procedure: (§4) For the migration studies, 5×10^5 or 10^6 cells were distributed on 6-well plates and let them to adhere for 2 hours at 37° C./5% CO2. The culture medium was changed and the peptide was added at 500 μM overnight. The cell monolayer was “wounded” with a P1000 tip and incubated for 24 hours. Images of untreated cells (control) and peptide treated cells were captured with a JENOPTIK camera. Cell numbers (nuclei) were determined using the Pixcavator software version 5.0.

[4] = tested on: human glioblastoma U87 cells; assay: Cell migration, wound healing assay; format: cell-based; details: peptide 500 μM, 24 hours
Procedure: as §4

Molecule	adherence at peptide concentration of 1 mM (not suspended by trypsin/EDTA) (tumor cells)	adherence of tumor cells to the substrate (tumor cells)	EC50 [1] [µM]	tumor cells resistant to trypsinization (SiHa cells) [%]	cells resistant to trypsinization (HCT cells) [%]	EC50 (HL-60 cells; 24 hours, Trypan blue and MTT, read-out: concentration reducing cell viability by 50% (ED50)) [µM]	cytotoxicity to HL-60 cells (HL-60 cells)	cytotoxicity / activity against OVCAR-3 cells (OVCAR-3 cells)	hyper-adherent effect (detachment with trypsin/EDTA) (OVCAR-3 cells)	protection against lung colonization (lung nodules) [2]	inhibition of cell migration [3]	inhibition of cell migration [4]
C[C@@H]1NC(=O)[C@H](CCCNC(=N)N)NC(=O)[C@H](C)NC(=O)[C@H]([C@@H](C)O)NC(=O)[C@H](CCC(=O)O)NC(=O)CNC(=O)[C@H](CCCNC(=N)N)NC(=O)[C@H](C)NC(=O)[C@@H](N)CSSC[C@@H](C(N)=O)NC(=O)CNC(=O)[C@H](CCC(N)=O)NC(=O)CNC(=O)[C@H](Cc2c[nH]c3ccccc23)NC(=O)[C@H](Cc2ccc(O)cc2)NC(=O)[C@H](C)NC(=O)[C@H](Cc2ccccc2)NC(=O)[C@H]([C@@H](C)O)NC1=O [RB9, CARGETARATFAYWGQGC-NH2]	hyper-adherence	dose dependent increase of adherence	630	30	80	920 to 930	mildly cytotoxic; also recorded: mild cytotoxicity	inactive; also recorded: no significant decrease in viability; also recorded: lack of cytotoxicity	normally detached; also recorded: most cells were unaffected	successfully protected; also recorded: reduced	no effect; also recorded: non-inhibition	poorly; also recorded: partial inhibition
CARGETARATFAYWGQG-NH2 [RB10, CARGETARATFAYWGQG-NH2]	hyper-adherence	dose dependent increase of adherence	610	80	80		mildly cytotoxic	inactive	normally detached	successfully protected; also recorded: protective; also recorded: reduced	complete or almost complete inhibition	partial migration inhibition
